CCc1nc(N)nc(N)c1-c1ccc(Cl)cc1
solubility (mole fraction)
Settings	278.15 K	283.15 K	288.15 K	293.15 K	298.15 K	303.15 K	308.15 K	313.15 K	318.15 K
in acetone	0.0011	0.00125	0.00147	0.00171	0.0019	0.00215	0.00241	0.00272	0.0033
in acetonitrile	9.12e-05	0.000108	0.000148	0.000198	0.00027	0.000383	0.000469	0.000596	0.000765
in ethanol	0.000603	0.000809	0.000972	0.00109	0.00123	0.00147	0.00181	0.0022	0.00254
in ethyl acetate	0.00141	0.00151	0.0017	0.00194	0.00218	0.00246	0.0029	0.00334	0.00389
in isobutanol	0.000678	0.000904	0.0011	0.00125	0.0014	0.00167	0.00198	0.00238	0.00274
in isopropanol	0.000234	0.000323	0.000456	0.00057	0.000709	0.000853	0.00104	0.00125	0.00152
in isopropyl acetate	0.000583	0.000717	0.000861	0.00107	0.00129	0.00155	0.00185	0.00226	0.00259
in methanol	0.000854	0.0011	0.00131	0.00151	0.00176	0.00203	0.00237	0.00278	0.00332
in methyl acetate	0.000372	0.000482	0.000615	0.000811	0.00105	0.00127	0.00158	0.00186	0.0023
in n-butanol	0.000802	0.000993	0.00124	0.00141	0.00164	0.00192	0.00227	0.00263	0.00317
in n-propanol	0.000712	0.000936	0.00118	0.00135	0.00152	0.00179	0.00211	0.00252	0.00298
in n-propyl acetate	0.000822	0.000952	0.00111	0.00136	0.00154	0.0018	0.0021	0.00243	0.00289
in sec-butanol	0.000398	0.000554	0.000662	0.000824	0.00106	0.0013	0.00164	0.00198	0.00227

Source: BigSolDB 2.1
